Assay results from patent publication US20060035927A1, “Calcilytic compounds” (SmithKline Beecham Corporation, priority 1999, published 2006).
Structures can show the parent of a compound that is named as a salt.

Assays:
osteopenic ovx rats [1] = assay: Ovariectomized rat Study 1: bone mineral density by DXA; type: in vivo; settings: Study 1, ovx rats, 100 mmol/kg body weight daily p.o., eight weeks of dosing
Description: (§1) Seven month old virgin Sprague Dawley female rats were subjected to bilateral ovariectomy or sham surgery and the animals then held for a period of three months to allow the development of osteopenia. At that time a single sham group (n=10) and three groups of ovariectomized (ovx) animals (n=10-14) were assigned. The ovx groups were selected such that there was no significant difference in bone mineral density (“BMD”) of the lumbar spine, proximal tibia or distal femur between groups. Groups consisted of sham and ovx controls treated with dose vehicle (20% aqueous encapsin) and ovx groups treated with either N-[(2R-Hydroxy-3-[(3-chloro-2-cyano)phenoxy-propyl]-1,1-dimethyl-2-(2-naphthyl)ethyl amine hydrochloride (“calcilytic administered”) ([…] body weight daily p.o.) or rat PTH 1-34 (5 ug/kg body weight daily s.c.).
(§2) During the study blood samples were drawn for determination of circulating PTH and osteocalcin. BMD was determined by DXA (QDR4500 Hologic, Waltham, Mass.) prior to treatment and at weeks 4 and 8. At term tibiae were removed for histological analysis. All animals received tetracycline 10 and 3 days prior to the start of dosing and calcein (10 mg/kg) 10 and 3 days prior to sacrifice.

plasma PTH = assay: Ovariectomized rat Study 1: circulating PTH levels (RIA); type: in vivo
Description: as §1, §2
(§3) Timed plasma samples were collected relative to administration of compound or PTH. PTH 1-34 was measured by RIA (Nichols Institute Diagnostics, San Juan Capistrano, Calif.). The concentrations of compound in the plasma were quantified by LC/MS/MS (limit of detection 10 ng/ml).

[2] = Ovariectomized rat Study 1: circulating compound levels (LC/MS/MS); type: in vivo; settings: Study 1, plasma, after oral administration
Description: as §1, §3

osteopenic ovx rats [3] = assay: Ovariectomized rat Study 2: calcilytic plus/minus 17β estradiol, histology and histomorphometry of proximal tibia; type: in vivo; settings: Study 2, proximal tibia, static histomorphometry, vs ovx group
Experimental: Animals were prepared and monitored as described above. […] Dosing continued for 5 weeks at which point the animals were sacrificed and the tibiae were collected for histological analysis. Bone samples were dehydrated through increasing concentrations of ethanol, defatted in acetone and embedded in methyl methacrylate (Polysciences, Inc., Warrington, Pa.). Longitudinal undecalcified sections (5 μm) sections of the proximal tibial were cut on a Leica microtome (S[…]); the tissue blocks had been prestained with Villanueva stain. Histomorphometric analysis was carried out using an Osteomeasure system (OsteoMetrics Incorpotated), without knowledge of group allocation. Measurements within the tibial metaphysis were restricted to a mean tissue area of approximately 8 mm^2 beginning 1 mm below the growth plate. Primary measurements included area of bone and marrow (mm^2), bone area (mm^2), perimeter of bone (mm), single and double-labelled perimeter (sL.Pm, dL.Pm, m), osteoid perimeter (O.Pm, m) and eroded perimeter (Er.P, m). […] Statistical analysis was assessed by a two sided t-test.

[4] = tested on: human TF274 osteoblastic cells; assay: Osteoblast cAMP production, TF274 cells; type: cell-based; settings: compound 0.1, 1 and 10 uM
Experimental: (§4) cAMP accumulation was measured in both human TF274 osteoblastic cells (derived by immortalization of human bone marrow stromal cells) see James, supra, and primary human osteoblasts derived from explants of trabecular bone as described in Beresford, Biochim. Biophys. Acta, Vol. 801, pp. 58-65 ([…]). cAMP levels in cell samples were measured using a non-radioactive protocol (Amersham kit). Alkaline phosphatase activity was determined using the standard colorimetric method as described previously in Gowen, Arth. Rheum., Vol. 31, pp. 1500-1507 (1988). N-[(2R-Hydroxy-3-[(3-chloro-2-cyano)phenoxy-propyl]-1,1-dimethyl-2-(2-naphthyl)ethyl amine hydrochloride was tested at 0.1, 1 and 10 uM. PTH 40 ng/ml was used as a positive control.

TF274 cells = assay: Osteoblast alkaline phosphatase activity; type: cell-based, human; settings: compound 0.1, 1 and 10 uM
Experimental: as §4

osteoblasts = assay: Toxicity in vitro in osteoblast assays; type: cell-based, human; settings: 10 uM concentration
Experimental: as §4

human osteoclasts = assay: Human osteoclast-mediated bone resorption assay; type: cell-based; settings: concentrations up to 3 uM, 24 hours
Experimental: The isolation of disaggregated human osteoclasts from fresh osteoclastoma tissue and the in vitro human osteoclast resorption assay were performed according to James, J. Bone Min. Res., Vol. 11, pp. 1453-1460. Briefly, human osteoclasts were seeded onto bovine cortical bone particles with compound or vehicle for 24 hours at 37° C. The culture media were then removed and the levels of the carboxy-terminal peptide of the α1 chain of human type I collagen were quantified as a biochemical readout of resorption, using a competitive binding enzyme linked immunosorbant assay (ELISA) (19) (Osteometer A/S, Rodovre, Denmark). The results are expressed as percent inhibition of resorption compared to supernatants derived from osteoclasts cultured in vehicle without inhibitor. IC50 values are determined from the resultant dose response curves.

fetal rat long bone = assay: Fetal rat long bone resorption assay; type: cell-based; settings: 45Ca release, PTH-stimulated, 48 hours; read-out: IC50, inhibition of resorption in fetal rat long bone assay
Experimental: The assay was performed essentially as in Votta, Bone, Vol. 15, pp. 533-538, (1994). Timed-pregnant Sprague-Dawley rats (Taconic Farms, Germantown, N.Y.) were injected subcutaneously with 200 microcuries of ^45CaCl2 on day 18 of gestation, housed overnight, then anesthetized with Innovar-Vet (Pittman-Moore, Mundelein, Ill.) and sacrificed by cervical dislocation. The fetuses were removed aseptically and the radii and ulnae were dissected free of surrounding soft tissue and cartilagenous ends. The bone rudiments (n=4) were subsequently cultured for 18-24 hours in BGJb medium (Sigma, St. Louis, Mo.) containing 1 mg/ml BSA, then transferred to fresh medium and cultured for an additional 48 hours in the absence or presence of PTH (human parathyroid hormone, Bachem, Torrence, Calif.) and the desired inhibitor. ^45 Ca released into the medium and the residual ^45Ca in the bones (following solubilization in 5% TCA for 1 hour at room temperature) were quantitated by liquid scintillation spectrometry. Data are expressed as the percent ^45Ca released from treated bones as compared with corresponding control bones. Statistical differences were assessed by a one way analysis of variance (ANOVA). IC-50 values were based on data from two independent experiments.

## CC(C)(Cc1ccc2ccccc2c1)NC[C@@H](O)COc1cccc(Cl)c1C#N [N-[(2R-Hydroxy-3-[(3-chloro-2-cyano)phenoxy-propyl]-1,1-dimethyl-2-(2-naphthyl)ethylamine hydrochloride]
Osteopenic ovx rats [1]
  bone mass (BMD; lumbar spine, distal femur, proximal tibia): unaffected
Plasma PTH; Study 1, after calcilytic 100 mmol/kg p.o.
  plasma PTH levels at four hours after administration: remained high
Plasma PTH; Study 1, end of experiment, after calcilytic 100 mmol/kg p.o.
  plasma PTH levels: > 100 pg/mL
Plasma PTH; Study 1, immediately prior to next dose of calcilytic
  plasma PTH levels after 24 hours: back to baseline
[2]
  sustained exposure to compound (circulating levels): elevated for up to eight hours
Osteopenic ovx rats [3]
  % trabecular area (% Tb.Ar.) / ovx-induced bone loss: no effect
[4]; PTH 40 ng/ml
  PTH-induced cAMP levels: no effect
[4]; PTH 40 ng/ml positive control
  cAMP levels (basal): no effect
TF274 cells
  alkaline phosphatase activity: did not result in any change
TF274 cells; PTH 40 ng/ml
  PTH-induced alkaline phosphatase: nor was PTH-induced alkaline phosphatase affected
osteoblasts
  toxicity in vitro: some toxicity
Human osteoclasts
  effect on human osteoclast mediated bone resorption: no effect
Fetal rat long bone
  IC50: 11.3 µM
